We go through two compounds from patent US20250316716A1, “ELECTROCHEMICAL OXYGEN REDUCTION CATALYST” (TOYOTA JIDOSHA KABUSHIKI KAISHA, priority 2024, published 2025).

Series [1] is described as follows: Water solubility of the modifier. Format: physicochemical.
The nature of series [2]: Alcohol solubility of the modifier. Format: physicochemical. The settings on record: organic solvent or mixture, alcohol (diacetone alcohol or ethanol).

For `Nc1nc(N)nc(N)n1` [Melamine, melamine], the solubility in series [1] and in series [2] was ≥ 3000 µg/mL in each case.

For the compound `NC1=NC2=NC(N)=NC3=NC(N)=NC(=N1)N23` [Melem, melem], the solubility in series [1] and in series [2] was < 3000 µg/mL each time.
